Measured values reported in patent US20230295201A1 (Gilead Sciences, Inc., priority 2020, published 2023).
Like-named read-outs stand apart in the source and are kept apart here.

Experiments:
Format in all cases: cell-based
DENV2 replicon = assay: DENV-2 Huh-7 Rep EC50 (replicon luminescence); conditions: read-out: DENV-2 Huh-7 Rep EC50
Procedure, shortened: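 EC50 derived from luminescence dose-response, normalised to DMSO-only 0% inhibition wells, after 1.5 h with EnduRen substrate. Compounds were first exposed for 48 h at 37° C to DENV2 replicon Huh-7 cells (5,000/well).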

RSV strain A2 = assay: RSV HEp-2 EC50 (infectious cytopathic cell protection assay); conditions: HEp-2 cells, RSV A2, 4 days, read-out: RSV HEp-2 EC50
Procedure, shortened: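 Percent inhibition of RSV-induced cytopathic effect came from remaining cell viability (CellTiter-Glo luminescence) after 4 days at 37° C. Compounds in 3-fold serial dilutions were exposed to an infectious mix of titered A2 virus and HEp-2 cells at 50,000/ml, with 0% and 100% inhibition control standards.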

RSV A2 = assay: RSV NHBE EC50 (RSV A2 antiviral assay in normal human bronchial epithelial cells); conditions: NHBE cells, RSV A2, 4 days, read-out: RSV NHBE EC50
HRV16 = HRV16 HELA EC50 (cytopathic effect in H1-HeLa cells)
Procedure, shortened: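 Read-out is luminescent cell viability (CellTiter-Glo) after 96 h of infection at 33 °C, scaled between uninfected and infected-untreated wells. Before infection with titrated virus, compounds went onto H1-HeLa cells as triplicate 3-fold dilution series.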

[1] = Dengue virus, DENV2, Huh-7, 48 h
[2] = human respiratory syncytial virus, 96 h
[3] = H1-HeLa cells, 96 h, 33° C.; read-out: HRV16 HELA EC50
[4] = Dengue virus, DENV2, Huh-7, 48 h, Huh-7 replicon cells, 48 hours
[5] = human respiratory syncytial virus, HEp-2, 96 h
[6] = human respiratory syncytial virus, NHBE, 96 h
[7] = 96 h, H1-HeLa cells, 33° C., read-out: HRV16 HELA EC50

Structure (SMILES) | EC50 (DENV2 replicon; [1]) | EC50 (RSV strain A2; [2]) | EC50 (RSV A2; [2]) | EC50 (HRV16; [3]) | EC50 (DENV2 replicon; [4]) | EC50 (RSV strain A2; [5]) | EC50 (RSV A2; [6]) | EC50 (HRV16; [7]) | EC50 (DENV2 replicon; Huh-7 replicon cells, 48 hours) | EC50 (RSV strain A2) | EC50 (RSV A2)
CCC(CC)COC(=O)[C@H](C)NP(=O)(N[C@@H](C)C(=O)OC)OC[C@@]1(C#N)O[C@@H](c2ccc3c(N)ncnn23)[C@H](O)[C@@H]1O (mixture of isomers) [Example 221, 2-Ethylbutyl ((((2R,3S,4R,5S)-5-(4-aminopyrrolo[2,1-f][1,2,4]triazin-7-yl)-2-cyano-3,4-dihydroxytetrahydrofuran-2-yl)methoxy)(((S)-1-methoxy-1-oxopropan-2-yl)amino)phosphoryl)-L-alaninate] | > 100 µM | 1.18 µM | > 1.05 µM | 8.49 µM | – | – | – | – | – | – | –
CC1(C(=O)OCCNP(=O)(OC[C@@]2(C#N)O[C@@H](c3ccc4c(N)ncnn34)[C@H](O)[C@@H]2O)Oc2ccccc2)CC1 (stereo partly drawn) [Example 141, 2-(((((2R,3S,4R,5S)-5-(4-aminopyrrolo[2,1-f][1,2,4]triazin-7-yl)-2-cyano-3,4-dihydroxytetrahydrofuran-2-yl)methoxy)(phenoxy)phosphoryl)amino)ethyl 1-methylcyclopropane-1-carboxylate] | – | – | – | – | > 50 µM | 2.01 µM | 0.067 µM | 14.9 µM | – | – | –
CCN1CCC(OC(=O)[C@H](C)NP(=O)(OC[C@@]2(C#N)O[C@@H](c3ccc4c(N)ncnn34)[C@H](O)[C@@H]2O)Oc2ccccc2)C(F)(F)C1 (stereo partly drawn) [Example 32, 1-ethyl-3,3-difluoropiperidin-4-yl ((((2R,3S,4R,5S)-5-(4-aminopyrrolo[2,1-f][1,2,4]triazin-7-yl)-2-cyano-3,4-dihydroxytetrahydrofuran-2-yl)methoxy)(phenoxy)phosphoryl)-L-alaninate] | – | – | – | – | > 100 µM | 3.44 µM | > 3.12 µM | 9.95 µM | – | – | –
CCCCCCCCCCCCCCCCCCOCCOP(=O)(O)OC[C@@]1(C#N)O[C@@H](c2ccc3c(N)ncnn23)[C@H](O)[C@@H]1O [Example 148, ((2R,3S,4R,5S)-5-(4-aminopyrrolo[2,1-f][1,2,4]triazin-7-yl)-2-cyano-3,4-dihydroxytetrahydrofuran-2-yl)methyl (2-(octadecyloxy)ethyl) hydrogen phosphate] | > 50 µM | 2.67 µM | 0.32 µM | 36.9 µM | – | – | – | – | – | – | –
CC[C@H](NP(=O)(OC[C@@]1(C#N)O[C@@H](c2ccc3c(N)ncnn23)[C@H](O)[C@@H]1O)Oc1ccccc1)C(=O)OC(C)C (stereo partly drawn) [Example 87, (2S)-isopropyl 2-(((((2R,3S,4R,5S)-5-(4-aminopyrrolo[2,1-f][1,2,4]triazin-7-yl)-2-cyano-3,4-dihydroxytetrahydrofuran-2-yl)methoxy)(phenoxy)phosphoryl)amino)butanoate] | – | – | – | – | > 100 µM | 1.34 µM | 1.7 µM | 6.71 µM | – | – | –
N#C[C@@]12COP(=O)(OC3CCCC3)O[C@H]1[C@@H](O)[C@H](c1ccc3c(N)ncnn13)O2 (stereo partly drawn) [Example 161, (4aR,6S,7S,7aS)-6-(4-aminopyrrolo[2,1-f][1,2,4]triazin-7-yl)-2-(cyclopentyloxy)-7-hydroxydihydro-4H-furo[3,2-d][1,3,2]dioxaphosphinine-4a(6H)-carbonitrile 2-oxide] | > 50 µM | 6.48 µM | 1.49 µM | 13.8 µM | – | – | – | – | – | – | –
CC(C)(CO)C(=O)OCCNP(=O)(OC[C@@]1(C#N)O[C@@H](c2ccc3c(N)ncnn23)[C@H](O)[C@@H]1O)Oc1ccccc1 (stereo partly drawn) [Example 126, 2-(((((2R,3S,4R,5S)-5-(4-aminopyrrolo[2,1-f][1,2,4]triazin-7-yl)-2-cyano-3,4-dihydroxytetrahydrofuran-2-yl)methoxy)(phenoxy)phosphoryl)amino)ethyl 3-hydroxy-2,2-dimethylpropanoate] | – | – | – | – | > 50 µM | 6.56 µM | 1.79 µM | 27.9 µM | – | – | –
CCC(CC)COC(=O)C1(NP(=O)(OC[C@@]2(C#N)O[C@@H](c3ccc4c(N)ncnn34)[C@H](O)[C@@H]2O)Oc2ccccc2)CCC1 (stereo partly drawn) [Example 100, 2-ethylbutyl 1-(((((2R,3S,4R,5S)-5-(4-aminopyrrolo[2,1-f][1,2,4]triazin-7-yl)-2-cyano-3,4-dihydroxytetrahydrofuran-2-yl)methoxy)(phenoxy)phosphoryl)amino)cyclobutanecarboxylate] | – | – | – | – | > 50 µM | > 5.6 µM | 3.6 µM | 18 µM | – | – | –
CCCOC(=O)C(C)NP(=O)(OCC1(C#N)OC(c2ccc3c(N)ncnn23)C(O)C1O)Oc1ccccc1 (single isomer, unassigned) [Example 47] | – | – | – | 0.56 µM | – | – | – | – | 9.19 µM | 0.051 µM | 0.162 µM
CCC(CC)COC(=O)[C@H](CC1CC1)NP(=O)(OC[C@@]1(C#N)O[C@@H](c2ccc3c(N)ncnn23)[C@H](O)[C@@H]1O)Oc1ccccc1 (stereo partly drawn) [Example 132, (2S)-2-ethylbutyl 2-(((((2R,3S,4R,5S)-5-(4-aminopyrrolo[2,1-f][1,2,4]triazin-7-yl)-2-cyano-3,4-dihydroxytetrahydrofuran-2-yl)methoxy)(phenoxy)phosphoryl)amino)-3-cyclopropylpropanoate] | – | – | – | – | 44.6 µM | 1.99 µM | 0.523 µM | 22.4 µM | – | – | –
CC[C@H](N[P@@](=O)(OC[C@@]1(C#N)O[C@@H](c2ccc3c(N)ncnn23)[C@H](O)[C@@H]1O)Oc1ccccc1)C(=O)OCC(C)(C)C [Example 158] | – | – | – | 13 µM | – | – | – | – | > 50 µM | 0.969 µM | 1.27 µM
CCOC(=O)[C@H](CC)NP(=O)(OC[C@@]1(C#N)O[C@@H](c2ccc3c(N)ncnn23)[C@H](O)[C@@H]1O)Oc1ccccc1 (stereo partly drawn) [Example 97, (2S)-ethyl 2-(((((2R,3S,4R,5S)-5-(4-aminopyrrolo[2,1-f][1,2,4]triazin-7-yl)-2-cyano-3,4-dihydroxytetrahydrofuran-2-yl)methoxy)(phenoxy)phosphoryl)amino)butanoate] | – | – | – | – | > 100 µM | 0.537 µM | 1.37 µM | 4.42 µM | – | – | –
COC(=O)[C@H](C)NP(=O)(OC[C@@]1(C#N)O[C@@H](c2ccc3c(N)ncnn23)[C@H](O)[C@@H]1O)Oc1ccccc1 (stereo partly drawn) [Example 39, methyl ((((2R,3S,4R,5S)-5-(4-aminopyrrolo[2,1-f][1,2,4]triazin-7-yl)-2-cyano-3,4-dihydroxytetrahydrofuran-2-yl)methoxy)(phenoxy)phosphoryl)-L-alaninate] | – | – | – | – | > 50 µM | 0.166 µM | 0.569 µM | 1.08 µM | – | – | –
CCOC(=O)[C@H](C)NP(=O)(N[C@@H](C)C(=O)OCC)OC[C@@]1(C#N)O[C@@H](c2ccc3c(N)ncnn23)[C@H](O)[C@@H]1O [Example 35, ((2R,3S,4R,5S)-5-(4-aminopyrrolo[2,1-f][1,2,4]triazin-7-yl)-2-cyano-3,4-dihydroxytetrahydrofuran-2-yl)methyl bis-ethyl L-alaninate phosphate] | > 50 µM | 4.07 µM | 1.31 µM | 29.6 µM | – | – | – | – | – | – | –
CC(C)C[C@H](NP(=O)(OC[C@@]1(C#N)O[C@@H](c2ccc3c(N)ncnn23)[C@H](O)[C@@H]1O)Oc1ccccc1)C(=O)OCC1CC1 (mixture of isomers) [Example 130, (2S)-cyclopropylmethyl 2-(((((2R,3S,4R,5S)-5-(4-aminopyrrolo[2,1-f][1,2,4]triazin-7-yl)-2-cyano-3,4-dihydroxytetrahydrofuran-2-yl)methoxy)(phenoxy)phosphoryl)amino)-4-methylpentanoate] | – | – | – | – | > 100 µM | 3.59 µM | 0.438 µM | 7.3 µM | – | – | –
